In ChEMBL document CHEMBL5518212, “Structure-Based Design of Novel G-Protein-Coupled Receptor TAAR1 Agonists as Potential Antipsychotic Drug Candidates” (J Med Chem, 2024):
In brackets after ≈: the same amount, converted by molar mass.

Legend:
[1] = Toxicity in C57BL/6J mouse assessed as induction of catalepsy at 3 to 10 mg/kg, po measured at 30 to 60 mins; assay type: organism-based; conditions: in vivo, dose lower 3 mg/kg, time lower 30 min, dose upper 10 mg/kg, time upper 60 min
[2] = Solubility of the compound at pH 7.4; assay type: physicochemical; conditions: buffer
[3] = Solubility of the compound at pH 7; assay type: physicochemical; conditions: buffer
[4] = Toxicity in C57BL/6J mouse assessed as reduction in baseline locomotion at 3 mg/kg, po; assay type: organism-based; conditions: in vivo
[5] = Solubility of the compound at pH 2; assay type: physicochemical; conditions: buffer
[6] = Half-life in Sprague-Dawley rat at 10 mg/kg, po measured upto 8 hrs by LC-MS/MS analysis; assay type: ADME, organism-based; conditions: in vivo
[7] = Cmax in Sprague-Dawley rat at 10 mg/kg, po measured upto 8 hrs by LC-MS/MS analysis; assay type: ADME, organism-based; conditions: in vivo
[8] = AUC(0 to t) in Sprague-Dawley rat at 10 mg/kg, po measured upto 8 hrs by LC-MS/MS analysis; assay type: ADME, organism-based; conditions: in vivo
[9] = Clearance in Sprague-Dawley rat at 2 mg/kg, iv measured upto 8 hrs by LC-MS/MS analysis; assay type: ADME, organism-based; conditions: in vivo
[10] = Toxicity in Kunming mouse assessed as heart damage at 50 mg/kg, po administered every 2 days for 14 days by H and E staining based assay; assay type: organism-based; conditions: in vivo, 336 h, time 14 day
[11] = Tmax in Sprague-Dawley rat at 10 mg/kg, po measured upto 8 hrs by LC-MS/MS analysis; assay type: ADME, organism-based; conditions: in vivo
[12] = Acute toxicity in Kunming mouse assessed as change in body weight at 50 mg/kg, po administered every 2 days for 14 days; assay type: organism-based; conditions: in vivo, 336 h, time 14 day
[13] = AUC(0 to infinity) in Sprague-Dawley rat at 10 mg/kg, po measured upto 8 hrs by LC-MS/MS analysis; assay type: ADME, organism-based; conditions: in vivo
[14] = Cmax in Sprague-Dawley rat at 2 mg/kg, iv measured upto 8 hrs by LC-MS/MS analysis; assay type: ADME, organism-based; conditions: in vivo
[15] = Tmax in Sprague-Dawley rat at 2 mg/kg, iv measured upto 8 hrs by LC-MS/MS analysis; assay type: ADME, organism-based; conditions: in vivo
[16] = Half-life in Sprague-Dawley rat at 2 mg/kg, iv measured upto 8 hrs by LC-MS/MS analysis; assay type: ADME, organism-based; conditions: in vivo
[17] = Toxicity in Kunming mouse assessed as liver damage at 50 mg/kg, po administered every 2 days for 14 days by H and E staining based assay; assay type: organism-based; conditions: in vivo, 336 h, time 14 day
[18] = AUC(0 to t) in Sprague-Dawley rat at 2 mg/kg, iv measured upto 8 hrs by LC-MS/MS analysis; assay type: ADME, organism-based; conditions: in vivo
[19] = Toxicity in Kunming mouse assessed as lung damage at 50 mg/kg, po administered every 2 days for 14 days by H and E staining based assay; assay type: organism-based; conditions: in vivo, 336 h, time 14 day
[20] = Oral bioavailability in Sprague-Dawley rat at 10 mg/kg measured upto 8 hrs by LC-MS/MS analysis; assay type: ADME, organism-based; conditions: in vivo
[21] = Acute toxicity in Kunming mouse assessed as abnormal behavior at 50 mg/kg, po administered every 2 days for 14 days; assay type: organism-based; conditions: in vivo, 336 h, time 14 day
[22] = Toxicity in Kunming mouse assessed as spleen damage at 50 mg/kg, po administered every 2 days for 14 days by H and E staining based assay; assay type: organism-based; conditions: in vivo, 336 h, time 14 day
[23] = AUC(0 to infinity) in Sprague-Dawley rat at 2 mg/kg, iv measured upto 8 hrs by LC-MS/MS analysis; assay type: ADME, organism-based; conditions: in vivo
[24] = Acute toxicity in Kunming mouse assessed as change in body weight at 500 mg/kg, po measured after 7 days; assay type: organism-based; conditions: in vivo, 168 h, time 7 day
[25] = Toxicity in Kunming mouse assessed as kidney damage at 50 mg/kg, po administered every 2 days for 14 days by H and E staining based assay; assay type: organism-based; conditions: in vivo, 336 h, time 14 day
[26] = target: T1, Trace amine-associated receptor 1 (Homo sapiens, UniProt Q96RJ0); assay: Agonist activity at Gs-mediated TAAR1 activation (unknown origin) expressed in HEK293 cells pretreated with coelenterazine for 30 mins followed by compound addition by BRET assay; assay type: functional, cell-based
T1 sequence (Q96RJ0 whole entry): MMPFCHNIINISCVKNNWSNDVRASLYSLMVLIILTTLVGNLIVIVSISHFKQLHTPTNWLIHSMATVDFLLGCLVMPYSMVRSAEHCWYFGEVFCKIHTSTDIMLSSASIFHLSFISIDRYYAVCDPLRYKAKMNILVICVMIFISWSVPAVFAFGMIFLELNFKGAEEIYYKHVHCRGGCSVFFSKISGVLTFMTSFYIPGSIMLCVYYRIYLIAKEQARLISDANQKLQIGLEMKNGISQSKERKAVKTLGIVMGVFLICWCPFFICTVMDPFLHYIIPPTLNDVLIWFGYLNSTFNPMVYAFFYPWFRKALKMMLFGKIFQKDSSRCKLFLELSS

[27] = target: T1, Trace amine-associated receptor 1; assay: Agonist activity at Gq-mediated TAAR1 activation (unknown origin) expressed in HEK293 cells pretreated with coelenterazine for 30 mins followed by compound addition by BRET assay; assay type: functional, cell-based
Mus musculus = species on record: Mus musculus; conditions: C57BL/6J, dose 0.3-3 mg/kg, route po, time 70.0 min

C[C@@H](N)C(=O)Nc1ccc(-c2ccco2)cc1
Activity [1]: Non-Toxic | solubility [2]: 0.54 mg/mL (≈ 2350 µM) | solubility [3]: 0.71 mg/mL (≈ 3080 µM) | Activity [4]: Non-Toxic | solubility [5]: 0.39 mg/mL (≈ 1690 µM)

C[C@@H](N)C(=O)Nc1ccc(-c2ccco2)cc1.Cl
half-life [6]: 2.31 h | Cmax [7]: 0.154 µg/mL | AUC(0-t) at 8 h [8]: 0.627 µg·h/mL | clearance [9]: 6.24 L/h/kg | Activity [10]: Non-Toxic | Tmax [11]: 1.5 h | Activity [12]: Non-Toxic | AUC(0-inf) [13]: 0.634 µg·h/mL | Cmax [14]: 0.292 µg/mL | solubility [2]: 3.11 mg/mL | Tmax [15]: 1.8 min | half-life [16]: 1.23 h | solubility [3]: 7.5 mg/mL | Activity [17]: Non-Toxic | AUC(0-t) at 8 h [18]: 0.323 µg·h/mL | Activity [19]: Non-Toxic | bioavailability [20]: 39% | Activity [21]: Non-Toxic | Activity [22]: Non-Toxic | AUC(0-inf) [23]: 0.327 µg·h/mL | solubility [5]: 8.64 mg/mL | Activity [24]: Non-Toxic | Activity [25]: Non-Toxic

NCCc1ccc(Br)cc1
EC50 [26]: 0.00985 µM | EC50 [27]: 0.0665 µM

Nc1ccc(-c2cccc(F)c2)cc1
EC50 [27]: 0.0289 µM

NCc1ccc(-c2ccccc2)cc1
EC50 [26]: 0.301 µM

Nc1ccc(-c2ccccc2)cc1 [BIPHENYL-4-AMINE]
EC50 [27]: 0.342 µM

NCCc1ccc(-c2cccc(F)c2)cc1
EC50 [26]: 0.00117 µM

CN(C)Cc1ccc(-c2ccccc2)cc1
Activity [1]: Non-Toxic | EC50 [26]: 0.00946 µM | inhibition (Mus musculus): Dose-Dependent Effect

CN(C)Cc1ccc(-c2cccc(Cl)c2)cc1
Activity [1]: Non-Toxic
